Measured values taken from US20210299079A1, “MONOMETHYL FUMARATE-CARRIER CONJUGATES AND METHODS OF THEIR USE” (Flagship Pioneering Innovations V, Inc., priority 2018, published 2021).

Key:
Type in all cases: cell-based
MIP-1α = experiment: Neutrophil Chemokine Production Assay: MIP-1α; conditions: human neutrophils, 12 h
Experimental: (§1) A volume 25 mL of human blood was layered over 15 mL of Histopaque®-1077 and centrifuged at 500 g, R^T, for 30 min with no break applied to the centrifuge. The PBMC band and Histopaque®-1077 layer were removed leaving behind the bottom red layer which was mixed with 40 mL of 1× red blood cell (RBC) lysis buffer (Sigma-Aldrich) was and split into two 50 mL tubes. The volume for both fractions was brought to 50 mL with RBC lysis buffer, mixed by inversion, and then incubated at RT for 10 min. Solutions were centrifuged at 250 g, for 10 min at RT and the supernatant liquids removed. The reddish pellets were re-suspended in 1 mL of RBC lysis buffer and combined. The cell suspension was incubated for 5 min at RT in RBC lysis buffer. After incubation 45 mL of Hanks Balanced Salt Solution with no calcium, magnesium or phenol red (HBSS—) was added, the cell suspension was spun (250 g for 10 min at RT), and supernatant liquids were removed. The white pellet was re-suspended in 1 mL of HBSS—, and cell counts were determined. The neutrophil cell suspension was brought to a concentration of 1.11e6 cells/mL in RPMI complete (Sigma-Aldrich), and 180 μL of cell suspension was transferred to all wells within a sterile 96-well tissue culture treated plate resulting in 2.0×10^5 cells/well. […] After incubation, 10 μL of 2 μg/mL LPS solution in RPMI complete was added to each well except for control wells, which received an additional 10 μL of media. Cells were incubated for 12 h (37° C., 5% CO2), after which plates were centrifuged at 250 g, RT, for 5 min and supernatant liquids were obtained and stored at −80° C. until analyzed via Luminex® Multiplex Assay for various chemokines and cytokines. Three data points were acquired from two different blood donors and averaged.

IL-8 = experiment: Neutrophil Chemokine Production Assay: IL-8; conditions: human neutrophils, 12 h
Experimental: as §1

naïve CD4+ T cells = experiment: Human Regulatory T Cell Differentiation Assay; conditions: 6 days; for Cell viability % DMSO: viability dye; for activity at 500 µM: IL-2, 0.5 mM
Experimental: Peripheral blood mononuclear cells (PBMCs) from whole blood donated by health volunteers were separated by Ficoll-Paque gradient centrifugation and naïve CD4^+ T cells were subsequently isolated using magnet beads (EasySep™ Human Naïve CD4^+ T Cell Isolation Kit, Cambridge, Mass.). For regulatory T cell (Treg) differentiation assay, naïve CD4^+ T cells were cultured (1-10×10^4 cells) in CTS OpTmizer medium for 6 days and stimulated with 5 ng/ml TGF-β, 100 U/ml IL-2, and ImmunoCult™ Human […] T Cell Activator; Stemcell #10990) with/without our Compounds. Cell viability was determined using a viability dye (eBioscience Fixable Viability Dye eFluor 780: ThermoFisher 65-0865-14) at 1:500 dilution. The cells were gated for Treg, defined as Live, CD11c^−, CD14^−, CD19^−, CD8^−, CD4^+, CD3^+, CD25^+, FOXP3^+. Percent (%) Tregs were calculated as percentage of CD4^+, CD25^+, FOXP3^+ cells over total CD4^+ T cells. Statistical analysis was performed with GraphPad Prism Software Using One-Way ANOVA.

MIP-1β = experiment: Neutrophil Chemokine Production Assay: MIP-1β; conditions: human neutrophils, 12 h
Experimental: as §1

IL-1β = experiment: Cytokine Release from Human PBMCs: IL-1β; conditions: LPS, 24 hours, Concentration 100 μM
Experimental: (§2) Human donor blood (8 mL) was collected in sodium citrate CPT tubes and centrifuged at 1,600×g for 20 minutes at room temperature. Buffy coat containing PBMCs was collected and transferred to a 50 mL conical tube containing 30 mL of RPMI-1640 medium at room temperature (supplemented with penicillin-streptomycin). PBMCs samples were centrifuged at 400×g for 10 minutes at 10° C. The pelleted PBMCs were washed twice in 10 ml of RPMI-1640 medium (supplemented with penicillin-streptomycin), then resuspended in RPMI-1640 medium (supplemented with penicillin-streptomycin, fetal bovine serum, and L-Glutamine). PBMCs were filtered through a 70 micron mesh to remove any cellular debris. […] PBMCs in a 96-well plate were rested for 30 minutes in a 37° C., 5% CO2 incubator, then subsequently treated with 10 μI of indicated compound. After 2 hours 10 μL of LPS (0111:64) 1 mg/mL was added to test wells. After 24 hours of incubation at 37° C., 5% CO2, 100 μL of cell supernatant was collected and transferred to a 96-well plate (non-tissue treated, flat bottom). The plate was centrifuged at 350×g for 5 minutes at room temperature, and then the clear supernatant transferred to a new 96-well plate (non-tissue treated, flat bottom). The remaining cells were tested for viability using CellTiter-Glo® Luminescent Cell Viability Assay (Promega). The supernatant was analyzed for TNFα, IL-6 and IL-1β (kit […] Systems), using Luminex Immunoassay Technology (MAGPIX System).

TNFα = experiment: Cytokine Release from Human PBMCs: TNFα; conditions: LPS, 24 hours, Concentration 100 μM
Experimental: as §2

IL-6 = experiment: Cytokine Release from Human PBMCs: IL-6; conditions: LPS, 24 hours, Concentration 100 μM
Experimental: as §2

Caco-2 colonocytes = experiment: Human Caco-2 Barrier Integrity Assay, Study 1; conditions: Caco-2, + cytokines (TNFα, IFNγ, IL-1β), 48 hours
Experimental: Caco-2 colonocytes were maintained at 37° C. and 5% CO2 in Dulbecco's Modified Eagle Medium (DMEM) and supplemented with 10% FBS, 1% NEAA, 1% penicillin-streptomycin. At 70-80% confluency, cells were trypsinized and seeded in 0.4 cm^2 transwell collagen I coated membranes with supplemented DMEM in both apical and basolateral compartments. […] After 48 hours, TEER readings were taken again and viability was measured by CellTiter 96® AQueous One Solution Cell Proliferation Assay (Promega).

[1] = Homo sapiens, 144 h, TGF-β, read-out: Treg induction % DMSO

With `C[C@@H](O)CCO` [(R) 1,3-butanediol] as the molecule, how does the “% MIP-1α (Vehicle + LPS = 100%)” value (MIP-1α; Conc. 100.0 μM) read?
Its value is “− (− = >90% Vehicle)”.

What about the “% MIP-1α (Vehicle + LPS = 100%)” value (MIP-1α; Conc. 500.0 μM) of the same molecule?
Its value is “− (− = >90% Vehicle)”.

What about the “% IL-8 (Vehicle + LPS = 100%)” value (IL-8; Conc. 100.0 μM) of the same molecule?
Its value is “− (− = >90% Vehicle)”.

What about the “% IL-8 (Vehicle + LPS = 100%)” value (IL-8; Conc. 500.0 μM) of the same molecule?
Its value is “− (− = >90% Vehicle)”.

What about the “Cell viability % DMSO” value (naïve CD4+ T cells; 100 μM) of the same molecule?
Its value is “= (90% > <110%: =)”.

And the “Cell viability % DMSO” value (naïve CD4+ T cells; 0.5 mM)?
Its value is “= (90% > <110%: =)”.

What about the activity at 100 µM (naïve CD4+ T cells; Homo sapiens, 144 h, TGF-β, IL-2, 100 μM, read-out: Treg induction % DMSO) of the same molecule?
Its activity at 100 µM is 90 to 110%.

What about the activity at 500 µM (naïve CD4+ T cells; [1]) of the same molecule?
The activity at 500 µM was 90 to 110%.

And the “% MIP-1β (DMSO + LPS = 100%)” value (MIP-1β; Conc. 100.0 μM)?
Its value is “+ (+ = <90% Vehicle)”.

And the “% MIP-1β (DMSO + LPS = 100%)” value (MIP-1β; Conc. 500.0 μM)?
Its value is “+ (+ = <90% Vehicle)”.

And the “IL1β % DMSO control” value (IL-1β)?
The value was “= ((=) 90% > <110% DMSO)”.

What about the “TNFα % of DMSO control” value (TNFα) of the same molecule?
The value was “= ((=) 90% > <110% DMSO)”.

And the “IL6 % DMSO control” value (IL-6)?
Its value is “= ((=) 90% > <110% DMSO)”.

What about the “% Change in TEER from DMSO” value (Caco-2 colonocytes; 100 μM) of the same molecule?
The value was “− (<125%: −)”.

What about the “% Change in TEER from DMSO” value (Caco-2 colonocytes; 0.5 mM) of the same molecule?
Its value is “− (<125%: −)”.

`O=C[C@H](O)[C@@H](O)[C@@H](O)CO` [L-arabinose] was tested. Which “% MIP-1α (Vehicle + LPS = 100%)” value (MIP-1α; Conc. 500.0 μM) did it give?
The value was “− (− = >90% Vehicle)”.

What about the “% MIP-1α (Vehicle + LPS = 100%)” value (MIP-1α; Conc. 1000.0 μM) of the same molecule?
Its value is “− (− = >90% Vehicle)”.

What about the “% IL-8 (Vehicle + LPS = 100%)” value (IL-8; Conc. 500.0 μM) of the same molecule?
Its value is “− (− = >90% Vehicle)”.

And the “% IL-8 (Vehicle + LPS = 100%)” value (IL-8; Conc. 1000.0 μM)?
The value was “− (− = >90% Vehicle)”.

And the “Cell viability % DMSO” value (naïve CD4+ T cells; 0.5 mM)?
The value was “= (90% > <110%: =)”.

And the “Cell viability % DMSO” value (naïve CD4+ T cells; 1 mM)?
Its value is “= (90% > <110%: =)”.

And the activity at 500 µM (naïve CD4+ T cells; [1])?
Its activity at 500 µM is 90 to 110%.

What about the activity at 1000 µM (naïve CD4+ T cells; Homo sapiens, 144 h, TGF-β, IL-2, 1 mM, read-out: Treg induction % DMSO) of the same molecule?
Its activity at 1000 µM is 90 to 110%.

And the “% MIP-1β (DMSO + LPS = 100%)” value (MIP-1β; Conc. 500.0 μM)?
Its value is “− (− = >90% Vehicle)”.

And the “% MIP-1β (DMSO + LPS = 100%)” value (MIP-1β; Conc. 1000.0 μM)?
The value was “− (− = >90% Vehicle)”.

And the “IL1β % DMSO control” value (IL-1β)?
The value was “= ((=) 90% > <110% DMSO)”.

And the “TNFα % of DMSO control” value (TNFα)?
The value was “+ ((+) 50% > <90% DMSO)”.

What about the “IL6 % DMSO control” value (IL-6) of the same molecule?
The value was “+ ((+) 50% > <90% DMSO)”.

For `CC(=O)O` [acetate], which “% MIP-1α (Vehicle + LPS = 100%)” value (MIP-1α; Conc. 500.0 μM) is on record?
Its value is “+ (+ = <90% Vehicle)”.

What about the “% MIP-1α (Vehicle + LPS = 100%)” value (MIP-1α; Conc. 1000.0 μM) of the same molecule?
The value was “++ (++ = <70% Vehicle)”.

What about the “% MIP-1α (Vehicle + LPS = 100%)” value (MIP-1α; Conc. 3000.0 μM) of the same molecule?
Its value is “+++ (+++ = <50% Vehicle)”.

And the “% IL-8 (Vehicle + LPS = 100%)” value (IL-8; Conc. 500.0 μM)?
Its value is “− (− = >90% Vehicle)”.

And the “% IL-8 (Vehicle + LPS = 100%)” value (IL-8; Conc. 1000.0 μM)?
Its value is “− (− = >90% Vehicle)”.

And the “% IL-8 (Vehicle + LPS = 100%)” value (IL-8; Conc. 3000.0 μM)?
Its value is “+++ (+++ = <50% Vehicle)”.

What about the “% MIP-1β (DMSO + LPS = 100%)” value (MIP-1β; Conc. 500.0 μM) of the same molecule?
The value was “+ (+ = <90% Vehicle)”.

What about the “% MIP-1β (DMSO + LPS = 100%)” value (MIP-1β; Conc. 1000.0 μM) of the same molecule?
Its value is “+ (+ = <90% Vehicle)”.

And the “% MIP-1β (DMSO + LPS = 100%)” value (MIP-1β; Conc. 3000.0 μM)?
The value was “+++ (+++ = <50% Vehicle)”.

What about the “IL1β % DMSO control” value (IL-1β) of the same molecule?
Its value is “= ((=) 90% > <110% DMSO)”.

And the “TNFα % of DMSO control” value (TNFα)?
The value was “= ((=) 90% > <110% DMSO)”.

What about the “IL6 % DMSO control” value (IL-6) of the same molecule?
Its value is “= ((=) 90% > <110% DMSO)”.

What about the “% Change in TEER from DMSO” value (Caco-2 colonocytes; 1 mM) of the same molecule?
The value was “− (<125%: −)”.

And the “% Change in TEER from DMSO” value (Caco-2 colonocytes; 3 mM)?
The value was “− (<125%: −)”.
